Patent US11339130B1 (Blade Therapeutics, Inc., priority 2016, dated 2022)
Read-outs that look alike come from different tables or passages of the source.

Experiments:
Type in all cases: biochemical
[1] = biological target: T1, Human Calpain 2/NS1 (Homo sapiens, UniProt P17655); assay: Calpain inhibition continuous fluorescence (FRET) assay, Human Calpain 2/NS1; details: read-out: Human Calpain 2/NS1 IC50
T1 sequence (P17655 1-700): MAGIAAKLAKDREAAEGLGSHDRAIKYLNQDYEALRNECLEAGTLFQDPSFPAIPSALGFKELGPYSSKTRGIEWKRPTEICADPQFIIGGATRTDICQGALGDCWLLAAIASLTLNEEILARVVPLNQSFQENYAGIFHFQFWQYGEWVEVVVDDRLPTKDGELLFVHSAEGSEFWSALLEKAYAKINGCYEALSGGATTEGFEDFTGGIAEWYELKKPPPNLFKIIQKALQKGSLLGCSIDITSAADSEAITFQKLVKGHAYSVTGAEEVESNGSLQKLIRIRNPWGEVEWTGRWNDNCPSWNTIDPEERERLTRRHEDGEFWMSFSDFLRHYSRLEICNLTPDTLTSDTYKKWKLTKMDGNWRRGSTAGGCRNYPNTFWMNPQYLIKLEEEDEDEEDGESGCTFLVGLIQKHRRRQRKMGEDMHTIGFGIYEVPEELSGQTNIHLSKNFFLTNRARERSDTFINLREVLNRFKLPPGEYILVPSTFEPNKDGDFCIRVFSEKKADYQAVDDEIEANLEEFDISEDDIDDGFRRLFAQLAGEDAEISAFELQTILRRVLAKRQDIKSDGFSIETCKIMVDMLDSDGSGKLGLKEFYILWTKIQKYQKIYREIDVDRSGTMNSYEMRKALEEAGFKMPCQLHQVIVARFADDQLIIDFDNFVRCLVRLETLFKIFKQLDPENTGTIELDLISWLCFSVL
T1 sequence (P04632 1-268 partner): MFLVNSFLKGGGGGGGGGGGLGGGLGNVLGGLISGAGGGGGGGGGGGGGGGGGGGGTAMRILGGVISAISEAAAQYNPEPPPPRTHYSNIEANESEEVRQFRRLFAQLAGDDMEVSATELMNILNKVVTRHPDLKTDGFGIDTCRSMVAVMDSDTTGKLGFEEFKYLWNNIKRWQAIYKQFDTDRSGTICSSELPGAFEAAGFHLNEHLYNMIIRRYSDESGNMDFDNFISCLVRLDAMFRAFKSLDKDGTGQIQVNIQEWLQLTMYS
Outline: (§1)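 Inhibitors were preincubated with calpain in 50 mM Tris pH 7.5, 100 mM NaCl, 1 mM DTT at 25C. Reactions were started with 5-FAM/QXL 520 FRET peptide substrate plus CaCl2 and read at 490/520 nm for 10 min. IC50s came from 4-parameter fits of slope rates (1-5 min).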

[2] = biological target: T2, Human Calpain 9/NS1 (Homo sapiens, UniProt O14815); assay: Calpain inhibition continuous fluorescence (FRET) assay, Human Calpain 9/NS1; details: read-out: Human Calpain 9/NS1 IC50
T2 sequence (O14815 1-690): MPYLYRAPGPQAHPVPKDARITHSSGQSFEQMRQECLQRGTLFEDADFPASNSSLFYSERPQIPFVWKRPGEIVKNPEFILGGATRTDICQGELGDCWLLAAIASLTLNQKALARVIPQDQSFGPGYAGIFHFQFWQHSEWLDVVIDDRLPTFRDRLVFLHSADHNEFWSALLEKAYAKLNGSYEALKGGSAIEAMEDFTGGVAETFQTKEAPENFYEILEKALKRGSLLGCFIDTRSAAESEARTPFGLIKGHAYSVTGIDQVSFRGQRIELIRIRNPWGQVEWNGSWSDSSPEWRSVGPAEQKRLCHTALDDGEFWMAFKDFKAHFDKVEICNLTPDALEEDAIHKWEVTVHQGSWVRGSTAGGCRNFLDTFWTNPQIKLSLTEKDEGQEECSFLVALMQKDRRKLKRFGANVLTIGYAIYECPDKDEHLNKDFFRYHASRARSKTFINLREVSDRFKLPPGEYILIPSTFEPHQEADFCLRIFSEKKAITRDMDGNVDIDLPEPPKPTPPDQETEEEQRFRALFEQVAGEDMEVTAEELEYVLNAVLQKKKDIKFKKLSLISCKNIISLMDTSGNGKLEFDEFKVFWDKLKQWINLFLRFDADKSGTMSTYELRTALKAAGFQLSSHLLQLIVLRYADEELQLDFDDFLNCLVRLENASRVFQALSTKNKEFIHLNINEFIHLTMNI
T2 sequence (P04632 1-268 partner): T1 sequence (P04632 1-268 partner)
Outline: as §1

[3] = biological target: T3, Human Calpain 1/NS1 (Homo sapiens, UniProt P07384); assay: Calpain inhibition continuous fluorescence (FRET) assay, Human Calpain 1/NS1; details: read-out: Human Calpain 1/NS1 IC50
T3 sequence (P07384 1-714): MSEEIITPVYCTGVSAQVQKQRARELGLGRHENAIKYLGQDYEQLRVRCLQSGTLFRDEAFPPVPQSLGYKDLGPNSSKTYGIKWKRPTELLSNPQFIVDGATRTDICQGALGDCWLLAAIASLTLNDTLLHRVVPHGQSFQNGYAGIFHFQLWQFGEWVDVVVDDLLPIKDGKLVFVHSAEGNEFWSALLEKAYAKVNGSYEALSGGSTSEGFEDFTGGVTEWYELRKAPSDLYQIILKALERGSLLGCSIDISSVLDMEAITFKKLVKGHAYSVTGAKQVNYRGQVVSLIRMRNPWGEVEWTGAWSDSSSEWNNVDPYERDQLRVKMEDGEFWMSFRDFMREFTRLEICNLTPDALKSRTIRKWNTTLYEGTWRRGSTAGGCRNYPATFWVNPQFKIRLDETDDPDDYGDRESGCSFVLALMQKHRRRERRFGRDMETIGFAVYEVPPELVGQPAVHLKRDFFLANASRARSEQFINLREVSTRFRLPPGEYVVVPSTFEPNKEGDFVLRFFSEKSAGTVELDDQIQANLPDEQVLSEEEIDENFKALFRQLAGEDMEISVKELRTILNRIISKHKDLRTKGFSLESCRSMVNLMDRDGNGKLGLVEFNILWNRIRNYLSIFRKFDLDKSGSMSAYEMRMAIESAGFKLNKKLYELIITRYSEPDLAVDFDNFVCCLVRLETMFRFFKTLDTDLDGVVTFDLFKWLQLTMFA
T3 sequence (P04632 1-268 partner): T1 sequence (P04632 1-268 partner)
Outline: as §1

| SMILES | IC50 [1] [µM] | IC50 [2] [µM] | IC50 [3] [µM] | IC50 ([1]; Column B) [µM] | IC50 ([2]; Column C) [µM] | IC50 ([3]; Column A) [µM] |
| --- | --- | --- | --- | --- | --- | --- |
| Cc1cnc(C(=O)NC(Cc2ccccc2)C(=O)C(N)=O)n1-c1ccccc1 (stereo not drawn) [Compound 490, N-(4-amino-3,4-dioxo-1-phenylbutan-2-yl)-5-methyl-1-phenyl-1H-imidazole-2-carboxamide] | 3 to 10 | < 3 | > 10 |  |  |  |
| Cc1cc(C(=O)N[C@@H](Cc2ccccc2)C(=O)C(=O)NC2CC2)n(-c2cnccn2)n1 [Compound 85, (S)—N-(4-(cyclopropylamino)-3,4-dioxo-1-phenylbutan-2-yl)-3-methyl-1-(pyrazin-2-yl)-1H-pyrazole-5-carboxamide] |  |  |  | < 3 | < 3 | < 3 |
| O=C(NC1CC1)C(=O)[C@H](Cc1ccccc1)NC(=O)c1cncn1-c1nc2ccccc2s1 [Compound 43, (S)-1-(benzo[d]thiazol-2-yl)-N-(4-(cyclopropylamino)-3,4-dioxo-1-phenylbutan-2-yl)-1H-imidazole-5-carboxamide] |  |  |  | < 3 | < 3 | < 3 |
| Cc1ncn(-c2ccccc2)c1C(=O)N[C@@H](Cc1ccccc1)C(=O)C(N)=O [Compound 290, (S)—N-(4-amino-3,4-dioxo-1-phenylbutan-2-yl)-4-methyl-1-phenyl-1H-imidazole-5-carboxamide] |  |  |  | < 3 | < 3 | < 3 |
| NC(=O)C(=O)[C@H](Cc1ccccc1)NC(=O)c1c(Cl)nsc1-c1ccccc1 [Compound 213, (S)—N-(4-amino-3,4-dioxo-1-phenylbutan-2-yl)-3-chloro-5-phenylisothiazole-4-carboxamide] |  |  |  | < 3 | < 3 | < 3 |
| Cn1ncc(-c2ccccc2)c1C(=O)N[C@@H](Cc1ccccc1)C(=O)C(N)=O [Compound 240] |  |  |  | < 3 | < 3 | < 3 |
| O=C[C@H](Cc1ccccc1)NC(=O)c1cncs1 [Compound 91, (S)—N-(1-oxo-3-phenylpropan-2-yl)thiazole-5-carboxamide] |  |  |  | < 3 | 3 to 10 | 3 to 10 |
| O=C[C@H](Cc1ccccc1)NC(=O)c1cncn1-c1ccn(-c2ccccc2)n1 [Compound 34, (S)—N-(1-oxo-3-phenylpropan-2-yl)-1-(1-phenyl-1H-pyrazol-3-yl)-1H-imidazole-5-carboxamide] |  |  |  | < 3 | < 3 | < 3 |
| Cn1nc(Br)c(C(=O)NC(Cc2ccccc2)C(=O)C(N)=O)c1Cl (stereo not drawn) [Compound 274, N-(4-amino-3,4-dioxo-1-phenylbutan-2-yl)-3-bromo-5-chloro-1-methyl-1H-pyrazole-4-carboxamide] |  |  |  | < 3 | < 3 | < 3 |
| Cc1nsc(-c2ccccc2)c1C(=O)N[C@@H](Cc1ccccc1)C(=O)C(N)=O [Compound 96, (S)—N-(4-amino-3,4-dioxo-1-phenylbutan-2-yl)-3-methyl-5-phenylisothiazole-4-carboxamide] |  |  |  | < 3 | < 3 | < 3 |
| NC(=O)C(=O)C(Cc1ccccc1)NC(=O)c1conc1-c1ncccn1 (stereo not drawn) [Compound 324, N-(4-amino-3,4-dioxo-1-phenylbutan-2-yl)-3-(pyrimidin-2-yl)isoxazole-4-carboxamide] | < 3 | 3 to 10 | < 3 |  |  |  |
| Cn1cc(C(=O)NC(Cc2ccccc2)C(=O)C(N)=O)c(C2CCOC2)n1 (stereo not drawn) [Compound 627, N-(4-amino-3,4-dioxo-1-phenylbutan-2-yl)-1-methyl-3-(tetrahydrofuran-3-yl)-1H-pyrazole-4-carboxamide] | < 3 | 3 to 10 | 3 to 10 |  |  |  |
| Cc1cc(C(=O)N[C@@H](Cc2ccccc2)C(=O)C(N)=O)n(-c2nc3c(C)cccc3s2)n1 [Compound 298, (S)—N-(4-amino-3,4-dioxo-1-phenylbutan-2-yl)-3-methyl-1-(4-methylbenzo[d]thiazol-2-yl)-1H-pyrazole-5-carboxamide] |  |  |  | > 10 | > 10 | > 10 |
| O=C[C@H](Cc1ccccc1)NC(=O)c1cncn1-c1ccccc1 [Compound 1, (S)—N-(1-oxo-3-phenylpropan-2-yl)-1-phenyl-1H-imidazole-5-carboxamide] |  |  |  | < 3 | < 3 | < 3 |
| Cc1cc(C(=O)N[C@@H](Cc2ccccc2)C(=O)C(N)=O)nn1-c1ncc(-c2ccccc2)s1 [Compound 115, (S)—N-(4-amino-3,4-dioxo-1-phenylbutan-2-yl)-5-methyl-1-(5-phenylthiazol-2-yl)-1H-pyrazole-3-carboxamide] |  |  |  | < 3 | > 10 | > 10 |
| Cc1cc(C(=O)N[C@@H](Cc2ccccc2)C(=O)C(N)=O)nn1-c1nc(-c2ccccc2)cs1 [Compound 80, (S)—N-(4-amino-3,4-dioxo-1-phenylbutan-2-yl)-5-methyl-1-(4-phenylthiazol-2-yl)-1H-pyrazole-3-carboxamide] |  |  |  | < 3 | 3 to 10 | 3 to 10 |
| Cn1nc(-c2ccccc2)c(C(=O)N[C@@H](Cc2ccccc2)C(=O)C(N)=O)c1Cl [Compound 94, (S)—N-(4-amino-3,4-dioxo-1-phenylbutan-2-yl)-5-chloro-1-methyl-3-phenyl-1H-pyrazole-4-carboxamide] |  |  |  | < 3 | < 3 | < 3 |
| Cc1cc(C(=O)N[C@@H](Cc2ccccc2)C(=O)C(N)=O)n(-c2nccc3ccccc23)n1 [Compound 119, (S)—N-(4-amino-3,4-dioxo-1-phenylbutan-2-yl)-1-(isoquinolin-1-yl)-3-methyl-1H-pyrazole-5-carboxamide] |  |  |  | < 3 | < 3 | < 3 |
| Cn1ncc(C(=O)N[C@@H](Cc2ccccc2)C(=O)C(N)=O)c1-c1ccncc1 [Compound 165, (S)—N-(4-amino-3,4-dioxo-1-phenylbutan-2-yl)-1-methyl-5-(pyridin-4-yl)-1H-pyrazole-4-carboxamide] |  |  |  | < 3 | < 3 | < 3 |
